Source: the supplement of paper PMC10307832

Assays:
Assay in all cases: relative viability (nuclei count vs DMSO), 5 days (fraction); higher = more cells survive
[1] = compound: CC[C@H](C)N1C=C(C2=C(C=C(C=C21)C3=CN=C(C=C3)N4CCNCC4)C(=O)NCC5=C(C=C(NC5=O)C)C)C [GSK126] + COc1cc2c(Oc3ccc(NC(=O)C4(C(=O)Nc5ccc(F)cc5)CC4)cc3F)ccnc2cc1OCCCN1CCOCC1 [Foretinib] (partner 0.25 µM)
Summary of the method: (§1)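 Lung cancer cell lines in 1536-well plates got either a single drug or a fixed anchor-drug dose together with five library-drug doses (not always all listed) in √10 steps, by pin tool, on the day after seeding. Nuclei were counted after 5 days, and relative viability is the treated-to-vehicle ratio of nuclei counts. Values are medians of duplicate plates.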

[2] = compound: CC[C@H](C)N1C=C(C2=C(C=C(C=C21)C3=CN=C(C=C3)N4CCNCC4)C(=O)NCC5=C(C=C(NC5=O)C)C)C [GSK126] + Nc1nc2[nH]cc(CCc3ccc(C(=O)N[C@@H](CCC(=O)O)C(=O)O)cc3)c2c(=O)[nH]1 [Pemetrexed] (partner 0.2 µM)
Summary of the method: as §1

[3] = compound: NS(=O)(=O)OC[C@@H]1C[C@@H](n2ccc3c(N[C@H]4CCc5ccccc54)ncnc32)C[C@@H]1O [MLN4924] + Cc1nc(Nc2ncc(C(=O)Nc3c(C)cccc3Cl)s2)cc(N2CCN(CCO)CC2)n1 [Dasatinib] (partner 0.075 µM)
Summary of the method: as §1

[4] = compound: NS(=O)(=O)OC[C@@H]1C[C@@H](n2ccc3c(N[C@H]4CCc5ccccc54)ncnc32)C[C@@H]1O [MLN4924] + Nc1nc2[nH]cc(CCc3ccc(C(=O)N[C@@H](CCC(=O)O)C(=O)O)cc3)c2c(=O)[nH]1 [Pemetrexed] (partner 0.2 µM)
Summary of the method: as §1

Cell Line | relative viability ([1]; first compound 0.08 µM) | relative viability ([1]; first compound 0.253 µM) | relative viability ([1]; first compound 0.8 µM) | relative viability ([1]; first compound 2.53 µM) | relative viability ([1]; first compound 8 µM) | relative viability ([2]; first compound 0.08 µM) | relative viability ([2]; first compound 0.253 µM) | relative viability ([2]; first compound 0.8 µM) | relative viability ([2]; first compound 2.53 µM) | relative viability ([2]; first compound 8 µM) | relative viability ([3]; first compound 0.04 µM) | relative viability ([3]; first compound 0.1265 µM) | relative viability ([3]; first compound 0.4 µM) | relative viability ([3]; first compound 1.265 µM) | relative viability ([3]; first compound 4 µM) | relative viability ([4]; first compound 0.04 µM) | relative viability ([4]; first compound 0.1265 µM) | relative viability ([4]; first compound 0.4 µM) | relative viability ([4]; first compound 1.265 µM) | relative viability ([4]; first compound 4 µM)
NCI-H2085 | 1.09 | 1.04 | 0.855 | 1.12 | 1.24 | 1.03 | 0.874 | 0.894 | 0.854 | 0.978 | 0.215 | 0.226 | 0.339 | 0.393 | 0.292 | 0.916 | 0.91 | 0.888 | 0.882 | 0.451
NCI-H2087 | 1.2 | 0.999 | 1.05 | 1.28 | 1.13 | 0.611 | 0.666 | 0.685 | 0.645 | 0.648 | 0.742 | 0.574 | 0.533 | 0.126 | 0.0652 | 0.639 | 0.71 | 0.562 | 0.118 | 0.0987
NCI-H2126 | 1.19 | 0.847 | 1.21 | 1.28 | 1.25 | 0.71 | 0.725 | 0.702 | 0.686 | 0.645 | 0.647 | 0.617 | 0.55 | 0.201 | 0.23 | 0.659 | 0.676 | 0.435 | 0.278 | 0.281
NCI-H2170 | 0.587 | 1.03 | 0.979 | 0.969 | 0.973 | 0.249 | 0.245 | 0.271 | 0.256 | 0.264 | 0.866 | 0.767 | 0.264 | 0.127 | 0.129 | 0.275 | 0.311 | 0.271 | 0.129 | 0.135
NCI-H2228 | 0.871 | 0.828 | 0.789 | 0.832 | 0.628 | 0.374 | 0.312 | 0.354 | 0.312 | 0.392 | 0.524 | 0.638 | 0.14 | 0.107 | 0.11 | 0.377 | 0.32 | 0.213 | 0.0983 | 0.119
NCI-H2342 | 1.16 | 1.05 | 0.998 | 1.05 | 1.16 | 0.851 | 0.762 | 0.744 | 0.879 | 0.881 | 0.343 | 0.344 | 0.339 | 0.354 | 0.355 | 0.796 | 0.787 | 0.815 | 0.714 | 0.559
NCI-H2347 | 0.842 | 0.861 | 1.07 | 1.25 | 1.35 | 0.422 | 0.396 | 0.448 | 0.441 | 0.461 | 0.265 | 0.369 | 0.231 | 0.218 | 0.244 | 0.376 | 0.438 | 0.369 | 0.396 | 0.36
NCI-H2405 | 1.03 | 1 | 1.02 | 1.06 | 1.02 | 1.01 | 0.993 | 0.994 | 1.09 | 0.94 | 0.39 | 0.491 | 0.428 | 0.242 | 0.205 | 0.806 | 0.863 | 0.44 | 0.187 | 0.193
